Data taken from patent publication US20240156796A1, “PHARMACEUTICAL COMPOSITION FOR TREATMENT OR PREVENTION OF STRESS-RELATED DISORDERS” (TOKYO UNIVERSITY OF SCIENCE FOUNDATION, priority 2021, published 2024).
pIC50: −log10 of the molar value.

Columns and labels:
κ-opioid receptor [1] = target: T1, κ-opioid receptor (Homo sapiens, UniProt P41145); assay: Opioid receptor function test (agonist activity), Lance Ultra cAMP kit, CHO cells expressing human κ-opioid receptor; format: cell-based; settings: maximum response not reached, response rate at maximum concentration (10 μM), relative to U-69593, read-out: κ-receptor Emax (*response rate at the maximum concentration, reference value)
T1 construct: host or cells: CHO cells
Description: The functional activity of the compounds provided by the present invention relative to μ-, δ- and κ-opioid receptors was investigated.
(§1) Method: Using a Lance Ultra cAMP kit (manufactured by PerkinElmer, Inc.), the investigation was conducted in accordance with the prescribed method. In the evaluations of agonist activity, CHO cells expressing each of the human opioid receptors (δ, μ and κ: accession numbers and catalog numbers listed below) and each test compound were reacted for 30 minutes in an assay buffer (1×HBSS, 1 M HEPES, pH 7.4, 250 mM IBMX (isobutylmethylxanthine), 7.5% BSA) in the presence of 10 μM forskolin. Subsequently, the cAMP detection reagent included in the kit was added, and after 1 hour, a time-resolved fluorescence measurement was performed using an EnVision plate reader (manufactured by PerkinElmer, Inc.). […] The Emax value was calculated as the ratio of the maximum response of the test compound relative to a value of 100% for the maximum response of each control drug.
SNC80: (+)-4-[(aR)-α-((2S,5R)-4-allyl-2,5-dimethyl-1-piperazinyl)-3-methoxybenzyl]-N,N-diethylbenzamide DAMGO: [D-Ala^2,N-MePhe^4,Gly-ol]enkephalin U-69593: (+)-(5α,7α,8β)-N-methyl-N-[7-(1-pyrrolidinyl)-1-oxaspiro[4.5]dec-8-yl]benzeneacetamide

μ-opioid receptor = target: T2, μ-opioid receptor (Homo sapiens, UniProt P35372); assay: Opioid receptor function test (antagonist activity) against 30 nM DAMGO; format: cell-based; settings: antagonist activity vs 30 nM DAMGO
T2 construct: host or cells: CHO cells
Description: as §1
(§2) Evaluations of antagonist activity relative to the μ- and κ-opioid receptors were conducted using the same method as (1) above. A fixed concentration of each control drug (μ: 30 nM DAMGO, κ: 100 nM U-69593), the test compound and CHO cells expressing each of the human opioid receptors were reacted for 30 minutes in an assay buffer in the presence of 10 μM forskolin. The test compounds were evaluated in a concentration range from 10^−12 to 10^−5 M, and subsequent operations were conducted in the same manner as the agonist activity evaluations. A dose-response curve was determined for each test compound using a value of 100% for the response of each control drug in the absence of the test compound, and the concentration that inhibited 50% of the control drug response (namely, the IC50 value) was calculated.

κ-opioid receptor [2] = target: T1, κ-opioid receptor; assay: Opioid receptor function test (antagonist activity) against 100 nM U-69593; format: cell-based; settings: antagonist activity vs 100 nM U-69593
Description: as §1, §2

[3] = animal model, Non-Patent Documents 4 and 5; cited from earlier work
mouse [4] = assay: Mouse contextual fear conditioning test (effect on reconsolidation of fear memories), p.o. before second day test; format: in vivo; settings: 20 mg/kg p.o. two hours before second day test; second and third days; test time 2 minutes; vs solvent group (FIG. 2)
Description: <Mouse Contextual Fear Conditioning Test (Effect on Reconsolidation of Fear Memories)> Using the same contextual fear conditioning test as Example 41, the effect on the reconsolidation of fear memories was investigated. The test was conducted in accordance with the method described in Non-Patent Document 4. Administration of the compound of Example 7 (20 mg/kg p.o.) or a solvent was conducted two hours prior to placing the mouse in the experimental chamber on the second day. In this test, the test time on the second and third days was set to 2 minutes.

mouse [5] = assay: Mouse contextual fear conditioning test (effect on extinction learning of fear memories); format: in vivo; settings: 5, 10, 20 mg/kg p.o. two hours before second day test; second and third days; test time 6 minutes; vs solvent group (FIG. 1)
Description: The effect of the compound of Example 7 on extinction learning of fear memories was investigated in a mouse contextual fear conditioning test. The test was conducted in accordance with the method described in Non-Patent Document 4. Administration of the compound of Example 7 (5, 10, 20 mg/kg p.o.) or a solvent was conducted two hours prior to placing the mouse in the experimental chamber on the second day.

mouse [6] = assay: Mouse contextual fear conditioning test (effect on reconsolidation of fear memories), s.c. immediately after second day test; format: in vivo; settings: 1 mg/kg, 3 mg/kg s.c. immediately after second day test; third day; vs solvent group (FIG. 3)

T1 sequence (P41145 whole entry): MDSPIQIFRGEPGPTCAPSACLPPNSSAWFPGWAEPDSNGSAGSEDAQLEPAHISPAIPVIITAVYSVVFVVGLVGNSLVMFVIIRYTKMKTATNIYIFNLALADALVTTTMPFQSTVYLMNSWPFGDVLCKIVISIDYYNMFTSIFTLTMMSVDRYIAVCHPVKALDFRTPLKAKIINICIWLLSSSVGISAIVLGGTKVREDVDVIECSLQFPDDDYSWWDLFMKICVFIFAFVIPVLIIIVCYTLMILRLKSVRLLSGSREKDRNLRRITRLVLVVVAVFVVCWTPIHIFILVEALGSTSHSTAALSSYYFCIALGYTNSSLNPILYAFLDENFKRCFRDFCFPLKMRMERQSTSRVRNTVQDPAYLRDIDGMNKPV
T2 sequence (P35372 whole entry): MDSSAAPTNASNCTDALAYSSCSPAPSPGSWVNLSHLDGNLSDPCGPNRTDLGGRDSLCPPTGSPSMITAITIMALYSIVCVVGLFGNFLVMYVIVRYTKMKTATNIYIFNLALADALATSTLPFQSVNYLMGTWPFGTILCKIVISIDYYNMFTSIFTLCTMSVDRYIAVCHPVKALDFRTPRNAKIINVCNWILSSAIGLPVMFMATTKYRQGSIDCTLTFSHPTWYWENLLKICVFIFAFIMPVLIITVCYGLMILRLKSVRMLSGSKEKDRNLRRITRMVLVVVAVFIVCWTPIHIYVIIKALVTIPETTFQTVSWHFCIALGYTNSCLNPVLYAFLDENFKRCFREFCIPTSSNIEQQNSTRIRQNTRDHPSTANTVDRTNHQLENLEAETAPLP

| SMILES | pIC50 (μ-opioid receptor) | pIC50 (κ-opioid receptor [2]) | other results |
| --- | --- | --- | --- |
| O=C(c1cc(=O)cc[nH]1)N1C[C@H]2C[C@@]34CC[C@@H]1[C@@H]2[C@@]31CCN(CC2CC2)[C@@H]4Cc2ccc(O)cc21 [Example 14, 2-((1S,3aR,5aS,6R,11bR,11cS)-14-(cyclopropylmethyl)-10-hydroxy-2,3,3a,4,5,6,7,11c-octahydro-1H-6,11b-(epiminoethano)-1,5a-methanonaphtho[1,2-e]indole-3-carbonyl)pyridin-4(1H)-one] | – | – | Emax at 10 µM (κ-opioid receptor [1]): 5.7% |
| Cn1cc(C(=O)N2C[C@H]3C[C@@]45CC[C@@H]2[C@@H]3[C@@]42CCN(CC3CC3)[C@@H]5Cc3ccc(O)cc32)ccc1=O [Example 9, 5-((1S,3aR,5aS,6R,11bR,11cS)-14-(cyclopropylmethyl)-10-hydroxy-2,3,3a,4,5,6,7,11c-octahydro-1H-6,11b-(epiminoethano)-1,5a-methanonaphtho[1,2-e]indole-3-carbonyl)-1-methylpyridin-2(1H)-one] | 8.62 | 8.48 | – |
| CCn1cc(C(=O)N2C[C@H]3C[C@@]45CC[C@@H]2[C@@H]3[C@@]42CCN(CC3CC3)[C@@H]5Cc3ccc(O)cc32)ccc1=O [Example 28, 5-((1S,3aR,5aS,6R,11bR,11cS)-14-(cyclopropylmethyl)-10-hydroxy-2,3,3a,4,5,6,7,11c-octahydro-1H-6,11b-(epiminoethano)-1,5a-methanonaphtho[1,2-e]indole-3-carbonyl)-1-ethylpyridin-2(1H)-one] | 8.68 | 8.40 | – |
| C=CCN1C[C@H](C)N([C@H](c2ccc(C(=O)N(CC)CC)cc2)c2cccc(OC)c2)C[C@H]1C [SNC80, (+)-4-[(aR)-α-((2S,5R)-4-allyl-2,5-dimethyl-1-piperazinyl)-3-methoxybenzyl]-N,N-diethylbenzamide] | – | – | anxiolytic effect through the extinction of anxiety or fear memories [3]: exhibited an anxiolytic effect |
| O=C(c1ccc[nH]c1=O)N1C[C@H]2C[C@@]34CC[C@@H]1[C@@H]2[C@@]31CCN(CC2CC2)[C@@H]4Cc2ccc(O)cc21 [Example 3, 3-((1S,3aR,5aS,6R,11bR,11cS)-14-(cyclopropylmethyl)-10-hydroxy-2,3,3a,4,5,6,7,11c-octahydro-1H-6,11b-(epiminoethano)-1,5a-methanonaphtho[1,2-e]indole-3-carbonyl)pyridin-2(1H)-one] | 8.34 | 7.95 | – |
| O=C(c1cccc[n+]1[O-])N1C[C@H]2C[C@@]34CC[C@@H]1[C@@H]2[C@@]31CCN(CC2CC2)[C@@H]4Cc2ccc(O)cc21 [Example 1, 2-((1S,3aR,5aS,6R,11bR,11cS)-14-(cyclopropylmethyl)-10-hydroxy-2,3,3a,4,5,6,7,11c-octahydro-1H-6,11b-(epiminoethano)-1,5a-methanonaphtho[1,2-e]indole-3-carbonyl)pyridine 1-oxide] | 8.39 | 8.48 | – |
| O=C(c1cccc(=O)[nH]1)N1C[C@H]2C[C@@]34CC[C@@H]1[C@@H]2[C@@]31CCN(CC2CC2)[C@@H]4Cc2ccc(O)cc21 [Example 7, 6-((1S,3aR,5aS,6R,11bR,11cS)-14-(cyclopropylmethyl)-10-hydroxy-2,3,3a,4,5,6,7,11c-octahydro-1H-6,11b-(epiminoethano)-1,5a-methanonaphtho[1,2-e]indole-3-carbonyl)pyridin-2(1H)-one] | 8.89 | 8.34 | fear response (freezing behavior) (mouse [4]): significant reduction in fear response; fear response (freezing behavior, % of test time) (mouse [5]): significant reduction in fear response; fear response (freezing behavior) (mouse [6]): significant reduction in fear response |
| Cn1c(C(=O)N2C[C@H]3C[C@@]45CC[C@@H]2[C@@H]3[C@@]42CCN(CC3CC3)[C@@H]5Cc3ccc(O)cc32)cccc1=O [Example 10, 6-((1S,3aR,5aS,6R,11bR,11cS)-14-(cyclopropylmethyl)-10-hydroxy-2,3,3a,4,5,6,7,11c-octahydro-1H-6,11b-(epiminoethano)-1,5a-methanonaphtho[1,2-e]indole-3-carbonyl)-1-methylpyridin-2(1H)-one] | 8.24 | 8.47 | – |
